Data taken from patent publication US6461997B1, “Triazole sulfones having herbicidal activity” (Monsanto Technology LLC, priority 1999, dated 2002).

Experiments:
[1] = system: PANMI (wild proso millet); experiment: Pre-emergence herbicidal activity, warm season; assay type: in vivo, Panicum miliaceum; settings: GR80 = lowest tested rate (300, 100, 30, 10 g/ha) with 80% or greater inhibition; approx. 14 days after treating; 30/21° C.
Procedure, shortened: (§1)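 Each pot received seeds on sterilized fertilized topsoil, a soil cover, and a surface spray of compound (300–10 g/ha, acetone/water 50:50). Plants grew about 14 days at 30/21 °C (PANMI, DIGSA) or 18/13 °C (ALOMY, POLCO) before inhibition was rated against untreated pots to give GR80.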

[2] = system: BRAPP (broadleaf signalgrass); experiment: Pre-emergence herbicidal activity, warm season; assay type: in vivo, Brachiaria platyphylla; settings: GR80 = lowest tested rate (300, 100, 30, 10 g/ha) with 80% or greater inhibition; approx. 14 days after treating; 30/21° C.
Procedure, shortened: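 GR80 values derive from percent inhibition relative to untreated plants, read roughly 14 days after sowing and pre-emergence soil-surface treatment (compound in 50:50 acetone/water; rates typically 10, 30, 100, 300 g/ha). Warm-season weeds grew at 30/21° C day/night, cool-season ones at 18/13° C; an asterisk marks activity without reaching 80% at the highest rate.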

[3] = system: AGSST (creeping bentgrass); experiment: Pre-emergence herbicidal activity, cool season; assay type: in vivo, Agrostis stolonifera; settings: GR80 = lowest tested rate (300, 100, 30, 10 g/ha) with 80% or greater inhibition; approx. 14 days after treating; 18/13° C.
Procedure, shortened: (§2)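 Seeds sown in sterilised fertilised topsoil received surface-applied compound in 50:50 acetone/water, typically at 300, 100, 30 and 10 g/ha, then greenhouse-grown at 30/21° C (warm-season species) or 18/13° C (cool-season species). Percent inhibition versus untreated plants was scored at about 14 days, giving GR80; an asterisk marks activity short of 80% at the top rate.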

SETVI (green foxtail) = experiment: Pre-emergence herbicidal activity, cool season; assay type: in vivo, Setaria viridis; settings: GR80 = lowest tested rate (300, 100, 30, 10 g/ha) with 80% or greater inhibition; approx. 14 days after treating; 18/13° C.
Procedure, shortened: as §2

LOLMG (annual ryegrass) = experiment: Pre-plant incorporated (PPI) herbicidal activity, cool season; assay type: in vivo, Lolium multiflorum
Procedure, shortened: (§3)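 Greenhouse PPI test with treated cover soil over seeds; % inhibition vs untreated at about 14 days.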

DIGSA (large crabgrass) [4] = experiment: Pre-plant incorporated (PPI) herbicidal activity, warm season; assay type: in vivo, Digitaria sanguinalis
Procedure, shortened: as §3

[5] = system: GALAP (catchweed bedstraw); experiment: Pre-plant incorporated (PPI) herbicidal activity, cool season; assay type: in vivo, Galium aparine
Procedure, shortened: as §3

DIGSA (large crabgrass) [6] = experiment: Pre-emergence herbicidal activity, warm season; assay type: in vivo, Digitaria sanguinalis; settings: GR80 = lowest tested rate (300, 100, 30, 10 g/ha) with 80% or greater inhibition; approx. 14 days after treating; 30/21° C.
Procedure, shortened: as §1

POAAN (annual bluegrass) = experiment: Pre-plant incorporated (PPI) herbicidal activity, cool season; assay type: in vivo, Poa annua; settings: weed, PPI application
Procedure, shortened: as §3

[7] = system: AEGCY (jointed goatgrass); experiment: as above; assay type: in vivo, Aegilops cylindrica
Procedure, shortened: as §3

[8] = system: AGRRE (quackgrass (seedling)); experiment: as above; assay type: in vivo, Elymus repens
Procedure, shortened: as §3

AMARE (redroot pigweed) = experiment: Pre-emergence herbicidal activity, warm season; assay type: in vivo, Amaranthus retroflexus; settings: GR80 = lowest tested rate (300, 100, 30, 10 g/ha) with 80% or greater inhibition; approx. 14 days after treating; 30/21° C.
Procedure, shortened: as §2

POROL (common purslane) = experiment: Pre-emergence herbicidal activity, warm season; assay type: in vivo, Portulaca oleracea; settings: GR80 = lowest tested rate (300, 100, 30, 10 g/ha) with 80% or greater inhibition; approx. 14 days after treating; 30/21° C.
Procedure, shortened: as §2

[9] = weed, PPI application, 100 g/ha
[10] = weed, PPI application, 300 g/ha
[11] = weed, PPI application, 900 g/ha
[12] = pre-plant incorporated, lowest tested rate with 80% or greater inhibition, about 14 days

CCN(CC)C(=O)n1cnc(S(=O)(=O)C(F)(F)C(F)(F)Br)n1 [Example 4]
Pre-emergence activity (GR80) PANMI [1]: 100 g/ha | Pre-emergence activity (GR80) BRAPP [2]: 300 g/ha | Pre-emergence activity (GR80) AGSST [3]: 10 g/ha | Pre-emergence activity (GR80) SETVI (SETVI (green foxtail)): 30 g/ha | Percent inhibition LOLMG (LOLMG (annual ryegrass); weed, PPI application, 30 g/ha): 80% | Percent inhibition LOLMG (LOLMG (annual ryegrass); [9]): 100% | Percent inhibition LOLMG (LOLMG (annual ryegrass); [10]): 100% | Percent inhibition LOLMG (LOLMG (annual ryegrass); [11]): 100% | Percent inhibition DIGSA (DIGSA (large crabgrass) [4]; PPI application, 30 g/ha): 85% | Percent inhibition DIGSA (DIGSA (large crabgrass) [4]; PPI application, 100 g/ha): 90% | Percent inhibition DIGSA (DIGSA (large crabgrass) [4]; PPI application, 300 g/ha): 100% | Percent inhibition DIGSA (DIGSA (large crabgrass) [4]; PPI application, 900 g/ha): 100% | Percent inhibition GALAP ([5]; weed, PPI application, 30 g/ha): 75% | Percent inhibition GALAP [5, 9]: 100% | Percent inhibition GALAP [5, 10]: 100% | Percent inhibition GALAP [5, 11]: 100% | Pre-emergence activity (GR80) DIGSA (DIGSA (large crabgrass) [6]): 100 g/ha | Percent inhibition POAAN (POAAN (annual bluegrass); 30 g/ha): 95% | Percent inhibition POAAN (POAAN (annual bluegrass); 100 g/ha): 75% | Percent inhibition POAAN (POAAN (annual bluegrass); 300 g/ha): 100% | Percent inhibition POAAN (POAAN (annual bluegrass); 900 g/ha): 100% | Percent inhibition AEGCY ([7]; weed, PPI application, 30 g/ha): 0% | Percent inhibition AEGCY [7, 9]: 30% | Percent inhibition AEGCY [7, 10]: 50% | Percent inhibition AEGCY [7, 11]: 30% | Percent inhibition AGRRE ([8]; weed, PPI application, 30 g/ha): 50% | Percent inhibition AGRRE [8, 9]: 70% | Percent inhibition AGRRE [8, 10]: 80% | Percent inhibition AGRRE [8, 11]: 90% | Pre-emergence activity (GR80) AMARE (AMARE (redroot pigweed)): 100 g/ha | Pre-emergence activity (GR80) POROL (POROL (common purslane)): 100 g/ha

C=C(Br)CC(F)(F)S(=O)(=O)c1ncn(C(=O)N(CC)CC)n1 [Example 19]
Pre-emergence activity (GR80) PANMI [1]: 100 g/ha | Pre-emergence activity (GR80) BRAPP [2]: 300 g/ha | Pre-emergence activity (GR80) AGSST [3]: 30 g/ha | Pre-emergence activity (GR80) SETVI (SETVI (green foxtail)): 100 g/ha | inhibition at 10 g/ha (LOLMG (annual ryegrass); Lolium multiflorum, weed, PPI application, 10 g/ha, read-out: Percent inhibition LOLMG): 30% | inhibition at 30 g/ha (LOLMG (annual ryegrass); Lolium multiflorum, weed, PPI application, 30 g/ha, read-out: Percent inhibition LOLMG): 70% | inhibition at 100 g/ha (LOLMG (annual ryegrass); Lolium multiflorum, weed, PPI application, 100 g/ha, read-out: Percent inhibition LOLMG): 100% | inhibition at 300 g/ha (LOLMG (annual ryegrass); Lolium multiflorum, weed, PPI application, 300 g/ha, read-out: Percent inhibition LOLMG): 100% | inhibition at 900 g/ha (LOLMG (annual ryegrass); Lolium multiflorum, weed, PPI application, 900 g/ha, read-out: Percent inhibition LOLMG): 100% | PPI activity GR80, LOLMG (LOLMG (annual ryegrass); [12]): 300 g/ha | inhibition at 30 g/ha (DIGSA (large crabgrass) [4]; Digitaria sanguinalis, PPI application, 30 g/ha, read-out: Percent inhibition DIGSA): 40% | inhibition at 100 g/ha (DIGSA (large crabgrass) [4]; Digitaria sanguinalis, PPI application, 100 g/ha, read-out: Percent inhibition DIGSA): 90% | inhibition at 300 g/ha (DIGSA (large crabgrass) [4]; Digitaria sanguinalis, PPI application, 300 g/ha, read-out: Percent inhibition DIGSA): 90% | inhibition at 900 g/ha (DIGSA (large crabgrass) [4]; Digitaria sanguinalis, PPI application, 900 g/ha, read-out: Percent inhibition DIGSA): 99% | PPI activity GR80, DIGSA (DIGSA (large crabgrass) [4]; [12]): 30 g/ha | inhibition at 10 g/ha ([5]; Galium aparine, weed, PPI application, 10 g/ha, read-out: Percent inhibition GALAP): 85% | inhibition at 30 g/ha ([5]; Galium aparine, weed, PPI application, 30 g/ha, read-out: Percent inhibition GALAP): 100% | inhibition at 100 g/ha ([5]; Galium aparine, weed, PPI application, 100 g/ha, read-out: Percent inhibition GALAP): 100% | inhibition at 300 g/ha ([5]; Galium aparine, weed, PPI application, 300 g/ha, read-out: Percent inhibition GALAP): 50% | inhibition at 900 g/ha ([5]; Galium aparine, weed, PPI application, 900 g/ha, read-out: Percent inhibition GALAP): 100% | PPI activity GR80, GALAP [5, 12]: 100 g/ha | Pre-emergence activity (GR80) DIGSA (DIGSA (large crabgrass) [6]): 100 g/ha | inhibition at 10 g/ha (POAAN (annual bluegrass); Poa annua, 10 g/ha, read-out: Percent inhibition POAAN): 0% | inhibition at 30 g/ha (POAAN (annual bluegrass); Poa annua, 30 g/ha, read-out: Percent inhibition POAAN): 0% | inhibition at 100 g/ha (POAAN (annual bluegrass); Poa annua, 100 g/ha, read-out: Percent inhibition POAAN): 10% | inhibition at 300 g/ha (POAAN (annual bluegrass); Poa annua, 300 g/ha, read-out: Percent inhibition POAAN): 100% | inhibition at 900 g/ha (POAAN (annual bluegrass); Poa annua, 900 g/ha, read-out: Percent inhibition POAAN): 100% | inhibition at 10 g/ha ([7]; Aegilops cylindrica, weed, PPI application, 10 g/ha, read-out: Percent inhibition AEGCY): 0% | inhibition at 30 g/ha ([7]; Aegilops cylindrica, weed, PPI application, 30 g/ha, read-out: Percent inhibition AEGCY): 0% | inhibition at 100 g/ha ([7]; Aegilops cylindrica, weed, PPI application, 100 g/ha, read-out: Percent inhibition AEGCY): 20% | inhibition at 300 g/ha ([7]; Aegilops cylindrica, weed, PPI application, 300 g/ha, read-out: Percent inhibition AEGCY): 50% | inhibition at 900 g/ha ([7]; Aegilops cylindrica, weed, PPI application, 900 g/ha, read-out: Percent inhibition AEGCY): 20% | PPI activity GR80, AEGCY [7, 12]: 300 g/ha | inhibition at 10 g/ha ([8]; Elymus repens, weed, PPI application, 10 g/ha, read-out: Percent inhibition AGRRE): 0% | inhibition at 30 g/ha ([8]; Elymus repens, weed, PPI application, 30 g/ha, read-out: Percent inhibition AGRRE): 0% | inhibition at 100 g/ha ([8]; Elymus repens, weed, PPI application, 100 g/ha, read-out: Percent inhibition AGRRE): 10% | inhibition at 300 g/ha ([8]; Elymus repens, weed, PPI application, 300 g/ha, read-out: Percent inhibition AGRRE): 20% | inhibition at 900 g/ha ([8]; Elymus repens, weed, PPI application, 900 g/ha, read-out: Percent inhibition AGRRE): 80% | PPI activity GR80, AGRRE [8, 12]: 100 g/ha | Pre-emergence activity (GR80) AMARE (AMARE (redroot pigweed)): * (activity observed, at least at highest rate, but <80% inhibition) | Pre-emergence activity (GR80) POROL (POROL (common purslane)): 300 g/ha
